Drawing on patent US9403758B2, “Antibacterial agents” (Achaogen, Inc., priority 2012, dated 2016), this text covers MIC for 9 compounds.

Format in all cases: cell-based
Test [1] concerns Escherichia coli ATCC25922. Description: MIC broth microdilution, Escherichia coli ATCC25922 (AECO). The conditions noted are these: 35° C., 18-24 hr, read-out: Minimum Inhibitory Concentrations (MICs) AECO. How it is done:
(§1) Bacterial isolates were cultivated from −70° C. frozen stocks by overnight passages at 35° C. in ambient air on Mueller-Hinton agar (Beckton Dickinson, Franklin Lakes, N.J.). Clinical isolates tested were obtained from various geographically diverse hospitals in the US and abroad (Focus Diagnostics, Herndon, Va. and JMI, North Liberty, Iowa). Quality control strains were from the American Type Culture Collection (ATCC; Rockville, Md.).
(§2) Minimum Inhibitory Concentrations (MICs) were determined by the broth microdilution method in accordance with the Clinical and Laboratory Standards Institute (CLSI) guidelines. In brief, organism suspensions were adjusted to a 0.5 McFarland standard to yield a final inoculum between 3×10^5 and 7×10^5 colony-forming units (CFU)/mL. Drug dilutions and inocula were made in sterile, cation adjusted Mueller-Hinton Broth (Beckton Dickinson). An inoculum volume of 100 μL was added to wells containing 100 μL of broth with 2-fold serial dilutions of drug. All inoculated microdilution trays were incubated in ambient air at 35° C. for 18-24 hr. Following incubation, the lowest concentration of the drug that prevented visible growth (OD600 nm<0.05) was recorded as the MIC. Performance of the assay was monitored by the use of laboratory quality-control strains and levofloxacin, a compound with a defined MIC spectrum, in accordance with CLSI guidelines. Typically, compounds of the present invention have MIC values of 0.03-32 μg/mL.

The subject of test [2] is Pseudomonas aeruginosa ATCC27853. Put plainly: MIC broth microdilution, Pseudomonas aeruginosa ATCC27853 (APAE). The conditions noted are these: 35° C., 18-24 hr, read-out: Minimum Inhibitory Concentrations (MICs) APAE. Here is the method: as §1, §2
(In broth dilution the organism is exposed to a series of concentrations in liquid medium.)

Test [3] concerns Klebsiella pneumonia ATCC43816. Put plainly: MIC broth microdilution, Klebsiella pneumonia ATCC43816 (AKPN). The conditions noted are these: Klebsiella pneumoniae, 35° C., 18-24 hr, read-out: Minimum Inhibitory Concentrations (MICs) AKPN. How it is done:
as §1, §2

Values after ≈ are worked out from the molar mass of the structure shown. Where only a bound is given, the exact number is not on record here.

In the case of `CC(CCc1ccc(C#CC#C[C@H]2C[C@@H]2CO)cc1)(C(=O)NO)S(C)(=O)=O` (relative stereo) [Compound 9, N-hydroxy-4-(4-(((trans)-2-(hydroxymethyl)cyclopropyl)buta-1,3-diynyl)phenyl)-2-methyl-2-(methylsulfonyl)butanamide], the MIC in test [1] is no more than 1 µg/mL; in test [2], no more than 1 µg/mL; in test [3], 1 to 8 µg/mL (≈ 2.57 to 20.5 µM).

For `CSC(C)(C)[C@H](NC(=O)c1ccc(C#CC#C[C@H]2C[C@@H]2CO)cc1)C(=O)NO` (stereo in doubt) [Compound 3, N—((R)-1-(hydroxyamino)-3-methyl-3-(methylthio)-1-oxobutan-2-yl)-4-(((trans)-2-(hydroxymethyl)cyclopropyl)buta-1,3-diynyl)benzamide], the MIC in test [1], in test [2] and in test [3] was no more than 1 µg/mL each time.

Take `CC(C)(N)[C@H](NC(=O)c1ccc2cc(C#CC3C[C@@H]3CO)ccc2c1)C(=O)NO` (stereo partly drawn) [Compound 6, N—((S)-3-amino-1-(hydroxyamino)-3-methyl-1-oxobutan-2-yl)-6-(((trans)-2-(hydroxymethyl)cyclopropyl)ethynyl)-2-naphthamide]: the MIC is 1 to 8 µg/mL (≈ 2.53 to 20.2 µM) in test [1], no more than 1 µg/mL in test [2] and 8 to 16 µg/mL (≈ 20.2 to 40.5 µM) in test [3].

With `O=C(NO)c1cc(-c2ccc(C#CC#C[C@@H]3C[C@H]3CO)cc2)ccn1` (relative stereo) [Compound 2, N-hydroxy-4-(4-(((trans)-2-(hydroxymethyl)cyclopropyl)buta-1,3-diynyl)phenyl)picolinamide], the MIC was no more than 1 µg/mL in test [1], 8 to 16 µg/mL (≈ 24.1 to 48.1 µM) in test [2] and 8 to 16 µg/mL (≈ 24.1 to 48.1 µM) in test [3].

Consider `CNC(=O)C(NC(=O)c1ccc(C#CC#C[C@@H]2C[C@H]2CO)cc1)C(=O)NO` (stereo partly drawn) [Compound 8], for which the MIC in test [1], in test [2] and in test [3] was no more than 1 µg/mL in each case.

`O=C(NO)c1cc(-c2ccc(C#CC#C[C@@H]3C[C@H]3CO)cc2)nc2ccncc12` (relative stereo) [Compound 1, N-hydroxy-2-(4-(((trans)-2-(hydroxymethyl)cyclopropyl)buta-1,3-diynyl)phenyl)-1,6-naphthyridine-4-carboxamide]: the MIC in test [1] is no more than 1 µg/mL; in test [2] it was 8 to 16 µg/mL (≈ 20.9 to 41.7 µM); in test [3], no more than 1 µg/mL.

With `CC(C)([C@H](NC(=O)c1ccc(C#CC#C[C@H]2C[C@@H]2CO)cc1)C(=O)NO)S(C)(=O)=O` (stereo in doubt) [Compound 5, N—((R)-1-(hydroxyamino)-3-methyl-3-(methylsulfonyl)-1-oxobutan-2-yl)-4-(((trans)-2-(hydroxymethyl)cyclopropyl)buta-1,3-diynyl)benzamide], the MIC in test [1], in test [2] and in test [3] was no more than 1 µg/mL throughout.

As for `CC(C)(N)[C@H](NC(=O)c1cc2ccc(C#CC3C[C@H]3CO)cc2s1)C(=O)NO` (stereo partly drawn) [Compound 7, N—((S)-3-amino-1-(hydroxyamino)-3-methyl-1-oxobutan-2-yl)-6-(((trans)-2-(hydroxymethyl)cyclopropyl)ethynyl)benzo[b]thiophene-2-carboxamide], the MIC was in the range of 1 to 8 µg/mL (≈ 2.49 to 19.9 µM) in test [1], 1 to 8 µg/mL (≈ 2.49 to 19.9 µM) in test [2] and 8 to 16 µg/mL (≈ 19.9 to 39.9 µM) in test [3].

On to `C[S+]([O-])C(C)(C)[C@H](NC(=O)c1ccc(C#CC#C[C@H]2C[C@@H]2CO)cc1)C(=O)NO` (stereo in doubt) [Compound 4, N-((2R)-1-(hydroxyamino)-3-methyl-3-(methylsulfinyl)-1-oxobutan-2-yl)-4-(((trans)-2-(hydroxymethyl)cyclopropyl)buta-1,3-diynyl)benzamide], for which the results for the MIC in test [1], in test [2] and in test [3] were no more than 1 µg/mL, no more than 1 µg/mL and 8 to 16 µg/mL (≈ 19.2 to 38.4 µM), respectively.
